The values below come from patent US20220008391A1, “NOVEL COMPOUNDS FOR CONTROLLING ARTHROPODS” (Bayer Animal Health GmbH, priority 2018, published 2022).

≈ marks a conversion by molar mass, not a printed value.

The nature of the data set: Measurement of solubility in buffer at pH 6.5. Type of data set: physicochemical. To be noted: aqueous buffer, kinetic from dmso stock; PBS buffer pH 6.5, shaken 24h at rt, LC-MSMS; read-out: Solubility of example compounds at pH 6.5. Here is the method:
Measurement of Solubility in Buffer at pH 6.5 2-4 mg of the test compound are dissolved in DMSO to reach a concentration of 50 g/L (solution A). To 10 μl of this solution 960 μl PBS buffer pH 6.5 are added (final concentration: 515 μg/1); the mixture is shaken for 24h at rt in a 96 well plate. An aliquot is centrifuged at 42000 rpm für 30 min. The supernatant is diluted with acetonitrile/water (8:2) 1:10 and 1:1000 resp. This diluted samples are analyzed by LC-MSMS. Calibration: 10 μl of solution A are diluted with 823 μl DMSO (final concentration: 600 μg/ml), which is further diluted with acetonitrile/water 8:2 by a factor of 100 (provides solution B). The calibration curve is obtained from solution B by further diluting with acetonitrile/water 8:2 with target concentrations of 1.2-12-60-600 ng/ml and injecting these four solutions for MS measurement. PBS-Puffer: 6.18 g sodium chloride and 3.96 g sodium dihydrogen phosphate are dissolved in 1 L aqua dist., the pH is adjusted to 6.5 with 1N sodium hydroxide. The following conditions were used for quantification: Autosampler without auto inject ahead setting, column: Waters OASIS HLB, 2,1×20 mm, 25μ, column temperature: 30° C., flow rate: 2.5 mL/min, injected volume: 2 μl, Splitter (before MS) 1:20.
As a reminder, the solubility is how much of the substance goes into solution per volume. Turning to `CC(C)(COCCOC(=O)OCN(C(=O)c1cc(-c2cnn(-c3c(Cl)cc(C(F)(C(F)(F)F)C(F)(F)F)cc3OC(F)(F)F)c2)ccc1Cl)C1(C#N)CC1)C(=O)O` [Example 8, 1-(2-chloro-5-{1-[2-chloro-4-(1,1,1,2,3,3,3-heptafluoropropan-2-yl)-6-(trifluoromethoxy)phenyl]-1H-pyrazol-4-yl}phenyl)-2-(1-cyanocyclopropyl)-11,11-dimethyl-1,5-dioxo-4,6,9-trioxa-2-azadodecan-12-oic Acid], the solubility at 24 h is 1 µg/mL (≈ 1.15 µM). For the compound `Cn1nc(C(F)(F)C(F)(F)F)c(C(F)(F)F)c1-n1cc(-c2ccc(Cl)c(C(=O)N(COC(=O)OCC3(C(=O)O)CC3)C3(C#N)CC3)c2)cn1` [Example 31, 1-{[({[{2-Chloro-5-[2′-methyl-5′-(pentafluoroethyl)-4′-(trifluoromethyl)-2′H-[1,3′-bipyrazol]-4-yl]benzoyl}(1-cyanocyclopropyl)amino]methoxy}carbonyl)oxy]methyl}cyclopropane-1-carboxylic Acid], the solubility at 24 h worked out at 168 µg/mL (≈ 232 µM). On to `N#CC1(N(COC(=O)O[C@H]2CC[C@H](C(=O)O)CC2)C(=O)c2cc(-c3cnn(-c4c(Cl)cc(C(F)(C(F)(F)F)C(F)(F)F)cc4OC(F)(F)F)c3)ccc2Cl)CC1` [Example 18, Trans-4-[({[(2-chloro-5-{1-[2-chloro-4-(1,1,1,2,3,3,3-heptafluoropropan-2-yl)-6-(trifluoromethoxy)phenyl]-1H-pyrazol-4-yl}benzoyl)(1-cyanocyclopropyl)amino]methoxy}carbonyl)oxy]cyclohexane-1-carboxylic Acid], for which the solubility at 24 h amounted to 3 µg/mL (≈ 3.53 µM). As to `N#CC1(N(COC(=O)OCCCC(=O)O)C(=O)c2cc(-c3cnn(-c4c(Cl)cc(C(F)(C(F)(F)F)C(F)(F)F)cc4OC(F)(F)F)c3)ccc2Cl)CC1` [Example 37, 4-[({[(2-Chloro-5-{1-[2-chloro-4-(1,1,1,2,3,3,3-heptafluoropropan-2-yl)-6-(trifluoromethoxy)phenyl]-1H-pyrazol-4-yl}benzoyl)(1-cyanocyclopropyl)amino]methoxy}carbonyl)oxy]butanoic Acid], the solubility at 24 h is 7 µg/mL (≈ 8.65 µM). Regarding `N#CC1(N(COC(=O)O[C@H]2CCC[C@@H]2OC(=O)/C=C/C(=O)O)C(=O)c2cc(-c3cnn(-c4c(Cl)cc(C(F)(C(F)(F)F)C(F)(F)F)cc4OC(F)(F)F)c3)ccc2Cl)CC1` [Example 10, (2E)-4-({(1S,2S)-2-[({[(2-chloro-5-{1-[2-chloro-4-(1,1,1,2,3,3,3-heptafluoropropan-2-yl)-6-(trifluoromethoxy)phenyl]-1H-pyrazol-4-yl}benzoyl)(1-cyanocyclopropyl)amino]methoxy}carbonyl)oxy]cyclopentyl}oxy)-4-oxobut-2-enoic Acid], the solubility at 24 h is 3 µg/mL (≈ 3.31 µM). For `Cn1nc(C(F)(F)C(F)(F)F)c(C(F)(F)F)c1-n1cc(-c2ccc(Cl)c(C(=O)N(COC(=O)OCCCC(=O)O)C3(C#N)CC3)c2)cn1` [Example 20, 4-[({[{2-Chloro-5-[2′-methyl-5′-(pentafluoroethyl)-4′-(trifluoromethyl)-2′H-[1,3′-bipyrazol]-4-yl]benzoyl}(1-cyanocyclopropyl)amino]methoxy}carbonyl)oxy]butanoic Acid], the solubility at 24 h worked out at 212 µg/mL (≈ 297 µM). With `Cn1nc(C(F)(F)C(F)(F)F)c(C(F)(F)F)c1-n1cc(-c2ccc(Cl)c(C(=O)N(COC(=O)O[C@H]3CCC[C@@H]3OC(=O)/C=C/C(=O)O)C3(C#N)CC3)c2)cn1` [Example 42, (2E)-4-({(1S,2S)-2-[({[{2-Chloro-5-[2′-methyl-5′-(pentafluoroethyl)-4′-(trifluoromethyl)-2′H-[1,3′-bipyrazol]-4-yl]benzoyl}(1-cyanocyclopropyl)amino]methoxy}carbonyl)oxy]cyclopentyl}oxy)-4-oxobut-2-enoic Acid], the solubility at 24 h came out at 38 µg/mL (≈ 47 µM). For `Cn1nc(C(F)(F)C(F)(F)F)c(C(F)(F)F)c1-n1cc(-c2ccc(Cl)c(C(=O)N(COC(=O)OCCOC(=O)CCCC(=O)O)C3(C#N)CC3)c2)cn1` [Example 28, 1-{2-Chloro-5-[2′-methyl-5′-(pentafluoroethyl)-4′-(trifluoromethyl)-2′H-[1,3′-bipyrazol]-4-yl]phenyl}-2-(1-cyanocyclopropyl)-1,5,10-trioxo-4,6,9-trioxa-2-azatetradecan-14-oic Acid], the solubility at 24 h came out at 76 µg/mL (≈ 96.8 µM). `Cn1nc(C(F)(F)C(F)(F)F)c(C(F)(F)F)c1-n1cc(-c2ccc(Cl)c(C(=O)N(COC(=O)O[C@@H]3CCC[C@H]3OC(=O)CCC(=O)O)C3(C#N)CC3)c2)cn1` [Example 38, 4-({(1R,2R)-2-[({[{2-Chloro-5-[2′-methyl-5′-(pentafluoroethyl)-4′-(trifluoromethyl)-2′H-[1,3′-bipyrazol]-4-yl]benzoyl}(1-cyanocyclopropyl)amino]methoxy}carbonyl)oxy]cyclopentyl}oxy)-4-oxobutanoic Acid]: the solubility at 24 h came out at 37 µg/mL (≈ 45.6 µM). As for `N#CC1(N(COC(=O)OCCOC(=O)CCCC(=O)O)C(=O)c2cc(-c3cnn(-c4c(Cl)cc(C(F)(C(F)(F)F)C(F)(F)F)cc4OC(F)(F)F)c3)ccc2Cl)CC1` [Example 12, 1-(2-Chloro-5-{1-[2-chloro-4-(1,1,1,2,3,3,3-heptafluoropropan-2-yl)-6-(trifluoromethoxy)phenyl]-1H-pyrazol-4-yl}phenyl)-2-(1-cyanocyclopropyl)-1,5,10-trioxo-4,6,9-trioxa-2-azatetradecan-14-oic Acid], the solubility at 24 h turned out to be 3 µg/mL (≈ 3.4 µM). For the compound `N#CC1(N(COC(=O)OCC(=O)O)C(=O)c2cc(-c3cnn(-c4c(Cl)cc(C(F)(C(F)(F)F)C(F)(F)F)cc4OC(F)(F)F)c3)ccc2Cl)CC1` [Example 19, [({[(2-chloro-5-{1-[2-chloro-4-(1,1,1,2,3,3,3-heptafluoropropan-2-yl)-6-(trifluoromethoxy)phenyl]-1H-pyrazol-4-yl}benzoyl)(1-cyanocyclopropyl)amino]methoxy}carbonyl)oxy]acetic Acid], the solubility at 24 h is 42 µg/mL (≈ 53.8 µM). Regarding `CC(C)(COC(=O)OCN(C(=O)c1cc(-c2cnn(-c3c(Cl)cc(C(F)(C(F)(F)F)C(F)(F)F)cc3OC(F)(F)F)c2)ccc1Cl)C1(C#N)CC1)C(=O)O` [Example 41, 3-[({[(2-Chloro-5-{1-[2-chloro-4-(1,1,1,2,3,3,3-heptafluoropropan-2-yl)-6-(trifluoromethoxy)phenyl]-1H-pyrazol-4-yl}benzoyl)(1-cyanocyclopropyl)amino]methoxy}carbonyl)oxy]-2,2-dimethylpropanoic Acid], the solubility at 24 h is 4 µg/mL (≈ 4.86 µM).

Take `Cn1nc(C(F)(F)C(F)(F)F)c(C(F)(F)F)c1-n1cc(-c2ccc(Cl)c(C(=O)N(COC(=O)O[C@H]3CC[C@H](C(=O)O)CC3)C3(C#N)CC3)c2)cn1` [Example 24, Trans-4-[({[{2-Chloro-5-[2′-methyl-5′-(pentafluoroethyl)-4′-(trifluoromethyl)-2′H-[1,3′-bipyrazol]-4-yl]benzoyl}(1-cyanocyclopropyl)amino]methoxy}carbonyl)oxy]cyclohexane-1-carboxylic Acid]: the solubility at 24 h was determined as 57 µg/mL (≈ 75.7 µM). The result for `Cn1nc(C(F)(F)C(F)(F)F)c(C(F)(F)F)c1-n1cc(-c2ccc(Cl)c(C(=O)N(COC(=O)OCCOC(=O)CC(C)(C)C(=O)O)C3(C#N)CC3)c2)cn1` [Example 40, 1-{2-Chloro-5-[2′-methyl-5′-(pentafluoroethyl)-4′-(trifluoromethyl)-2′H-[1,3′-bipyrazol]-4-yl]phenyl}-2-(1-cyanocyclopropyl)-12,12-dimethyl-1,5,10-trioxo-4,6,9-trioxa-2-azatridecan-13-oic Acid] reads 43 µg/mL (≈ 53.8 µM). For `Cn1nc(C(F)(F)C(F)(F)F)c(C(F)(F)F)c1-n1cc(-c2ccc(Cl)c(C(=O)N(COC(=O)OCCCOC(=O)CCC(=O)O)C3(C#N)CC3)c2)cn1` [Example 26, 1-{2-Chloro-5-[2′-methyl-5′-(pentafluoroethyl)-4′-(trifluoromethyl)-2′H-[1,3′-bipyrazol]-4-yl]phenyl}-2-(1-cyanocyclopropyl)-1,5,11-trioxo-4,6,10-trioxa-2-azatetradecan-14-oic Acid], the solubility at 24 h came out at 96 µg/mL (≈ 122 µM). For the compound `CC(C)(COC(=O)CCC(=O)O)COC(=O)OCN(C(=O)c1cc(-c2cnn(-c3c(Cl)cc(C(F)(C(F)(F)F)C(F)(F)F)cc3OC(F)(F)F)c2)ccc1Cl)C1(C#N)CC1` [Example 5, 1-(2-Chloro-5-{1-[2-chloro-4-(1,1,1,2,3,3,3-heptafluoropropan-2-yl)-6-(trifluoromethoxy)phenyl]-1H-pyrazol-4-yl}phenyl)-2-(1-cyanocyclopropyl)-8,8-dimethyl-1,5,11-trioxo-4,6,10-trioxa-2-azatetradecan-14-oic Acid], the solubility at 24 h is 2 µg/mL (≈ 2.2 µM). Take `Cn1nc(C(F)(F)C(F)(F)F)c(C(F)(F)F)c1-n1cc(-c2ccc(Cl)c(C(=O)N(COC(=O)O[C@H]3CC[C@H](OC(=O)/C=C/C(=O)O)CC3)C3(C#N)CC3)c2)cn1` [Example 22, Trans (2E)-4-({-4-[({[{2-chloro-5-[2′-methyl-5′-(pentafluoroethyl)-4′-(trifluoromethyl)-2′H-[1,3′-bipyrazol]-4-yl]benzoyl}(1-cyanocyclopropyl)amino]methoxy}carbonyl)oxy]cyclohexyl}oxy)-4-oxobut-2-enoic Acid]: the solubility at 24 h worked out at 17 µg/mL (≈ 20.7 µM).
